Experimental findings from ChEMBL document CHEMBL6182869, “Tetracationic tetraaryltetranaphtho[2,3]porphyrins for photodynamic inactivation against Staphylococcus aureus biofilm” (Eur J Med Chem, 2025) are described below.

Structures are written as SMILES. Calls of active or inactive are those of the source. The calls are words filed in the database; no cut-off is given here.

A short description of data set [1]: Photophysical property of the compound assessed as fluorescence quantum yield by UV-vis spectrophotometric analysis. The data set is classed as physicochemical.
A short description of data set [2]: Photophysical property of the compound assessed as singlet oxygen quantum yield by UV-vis spectrophotometric analysis. The data set is classed as physicochemical.
The nature of data set [3]: Induction of singlet oxygen quantum yield under 418 nm light irradiation by DPBF based assay. It is filed as functional.
The test system of data set [4] is Staphylococcus aureus. The data set can be described thus: Antibacterial activity against Staphylococcus aureus assessed as bacterial growth inhibition preincubated with compound for 15 mins followed by light irradiated with 730 nm, 40 J/cm2 and measured after 24 hrs by broth microdilution method. It is filed as functional. The conditions noted are these: light or radiation study, 24.25 h, time 1455 min.

Data set [5] concerns Staphylococcus aureus. The data set can be described thus: Antibacterial activity against Staphylococcus aureus assessed as bacterial growth inhibition measured after 24 hrs by broth microdilution method. The data set is classed as functional. (In general: Broth dilution looks for growth in wells or tubes with falling amounts of substance.)
The subject of data set [6] is Escherichia coli. The data set can be described thus: Antibacterial activity against Escherichia coli assessed as bacterial growth inhibition measured after 24 hrs by broth microdilution method. The data set is classed as functional.
The test system of data set [7] is Escherichia coli. The data set can be described thus: Antibacterial activity against Escherichia coli assessed as bacterial growth inhibition preincubated with compound for 15 mins followed by light irradiated with 730 nm, 40 J/cm2 and measured after 24 hrs by broth microdilution method. The data set is classed as functional. To be noted: light or radiation study, 24.25 h, time 1455 min.

The test system of data set [8] is Candida albicans. As to the kind of experiment: Antifungal activity against Candida albicans assessed as fungal growth inhibition measured after 24 hrs by broth microdilution method. The data set is classed as functional.
The subject of data set [9] is Candida albicans. The data set can be described thus: Antifungal activity against Candida albicans assessed as fungal growth inhibition preincubated with compound for 15 mins followed by light irradiated with 730 nm, 40 J/cm2 and measured after 24 hrs by broth microdilution method. The data set is classed as functional. To be noted: light or radiation study, 24.25 h, time 1455 min.

Data set [10] relates to Staphylococcus aureus. The data set can be described thus: Antibacterial activity against Staphylococcus aureus preincubated with compound for 15 mins followed by light irradiation with 730 nm, 40 J/cm2 by cell counting analysis. It is filed as functional, organism-based. To be noted: dose 0.5-8 µM.
Data set [11] relates to Staphylococcus aureus. The data set can be described thus: Antibacterial activity against Staphylococcus aureus assessed as reduction in viable bacteria at 0.5 uM preincubated with compound for 15 mins followed by light irradiation with 730 nm, 40 J/cm2 by cell counting analysis relative to control. The data set is classed as functional. The conditions noted are these: 0.25 h.

For data set [12], the system named is Staphylococcus aureus. The data set can be described thus: Antibacterial activity against Staphylococcus aureus assessed as log reduction in bacterial viability at 8 uM preincubated with compound for 15 mins followed by light irradiation with 730 nm, 40 J/cm2 by cell counting analysis relative to control. It is filed as functional. To be noted: 0.25 h.
Data set [13] deals with Staphylococcus aureus. The data set can be described thus: Antibacterial activity against Staphylococcus aureus assessed as eradication rate at 8 uM preincubated with compound for 15 mins followed by light irradiation with 730 nm, 40 J/cm2 relative to control. The data set is classed as functional. The conditions noted are these: 0.25 h.
In data set [14] the test system is Staphylococcus aureus. The data set can be described thus: Bactericidal activity against Staphylococcus aureus at 0.5 to 8 uM. The data set is classed as functional, organism-based. To be noted: dose 0.5-8 µM.
For data set [15], the system named is Staphylococcus aureus. The data set can be described thus: Antibiofilm activity against Staphylococcus aureus assessed as disruption of mature biofilm structure at 16 uM preincubated for 15 mins followed by light irradiation with 730 nm, 40 J/cm2 by crystal violet staining based analysis. The data set is classed as functional, organism-based.
Data set [16] relates to Staphylococcus aureus. As to the kind of experiment: Antibiofilm activity against Staphylococcus aureus assessed as disruption of mature biofilm rate at 16 uM preincubated for 15 mins followed by light irradiation with 730 nm, 40 J/cm2 by crystal violet staining based analysis relative to control. It is filed as functional. To be noted: 0.25 h.
For data set [17], the system named is Staphylococcus aureus. The data set can be described thus: Antibiofilm activity against Staphylococcus aureus assessed as reduction in green fluorescence intensity at 16 uM preincubated for 15 mins followed by light irradiation with 730 nm, 40 J/cm2 by SYTO 9/PI staining based CLSM analysis. It is filed as functional, organism-based.
The test system of data set [18] is Staphylococcus aureus. The data set can be described thus: Antibiofilm activity against Staphylococcus aureus assessed as increase in red fluorescence intensity at 16 uM preincubated for 15 mins followed by light irradiation with 730 nm, 40 J/cm2 by SYTO 9/PI staining based CLSM analysis. It is filed as functional, organism-based.
A short description of data set [19]: Dark cytotoxicity against human HaCaT cells assessed as cell viability at 16 uM preincubated for 15 mins by MTT assay. It is filed as toxicity, cell-based. The conditions noted are these: read-out: Activity. (In general: Tetrazolium dyes change colour on reduction, which living cells bring about.)
For data set [20], the system named is HaCaT. The data set can be described thus: Phototoxicity in human HaCaT cells assessed as cell viability at 16 uM preincubated for 15 mins by MTT assay. The data set is classed as functional, cell-based.
Data set [21] deals with HaCaT. As to the kind of experiment: Phototoxicity in human HaCaT cells assessed as cell viability at 16 uM preincubated for 15 mins followed by light irradiation with 730 nm, 40 J/cm2 by MTT assay. The data set is classed as functional, cell-based.
The test system of data set [22] is Staphylococcus aureus. As to the kind of experiment: Antibiofilm activity against Staphylococcus aureus at 16 uM preincubated for 15 mins followed by light irradiation with 730 nm, 40 J/cm2 by SYTO 9/PI staining based CLSM analysis. It is filed as functional, organism-based.
For data set [23], the system named is Staphylococcus aureus. As to the kind of experiment: Antibiofilm activity against Staphylococcus aureus assessed as viable bacteria at 16 uM preincubated for 15 mins followed by light irradiation with 730 nm, 40 J/cm2 by SYTO 9/PI staining based CLSM analysis. It is filed as functional, organism-based.

A word on the MIC: it is the least concentration at which growth counts as inhibited. As for `C[N+](C)(C)CCCOc1ccc(-c2c3nc(c(-c4ccc(OCCC[N+](C)(C)C)cc4)c4[nH]c(c(-c5ccc(OCCC[N+](C)(C)C)cc5)c5nc(c(-c6ccc(OCCC[N+](C)(C)C)cc6)c6[nH]c2c2cc7ccccc7cc62)-c2cc6ccccc6cc2-5)c2cc5ccccc5cc42)-c2cc4ccccc4cc2-3)cc1.[Br-].[Br-].[Br-].[Br-]`, the Activity in data set [1] was 0.07; in data set [2], 0.37; in [10], “Dose-dependent-effect”; in [11], greater than 75%; in data set [13], greater than 99.9%; in data set [16], 72.6%. Moreover, the result in [3], in data set [14], in [15], in data set [17] and in data set [18] was Active. Besides, the MIC is 8 µM in [4]; 32 µM in data set [5]; greater than 64 µM in [6]; greater than 64 µM in data set [7]; 64 µM in data set [8]; 64 µM in [9]. Also, the “log(activity)” value in data set [12] is on record as 3. Besides, the viability at 0.25 h, 16 µM in data set [19] is greater than 80%. Also, the outcome in data set [20] and in data set [21] was inactive.
Regarding `[Br-].[Br-].[Br-].[Br-].c1cc[n+](CCCOc2ccc(-c3c4nc(c(-c5ccc(OCCC[n+]6ccccc6)cc5)c5[nH]c(c(-c6ccc(OCCC[n+]7ccccc7)cc6)c6nc(c(-c7ccc(OCCC[n+]8ccccc8)cc7)c7[nH]c3c3cc8ccccc8cc73)-c3cc7ccccc7cc3-6)c3cc6ccccc6cc53)-c3cc5ccccc5cc3-4)cc2)cc1`, the Activity was 0.07 in [1]; 0.45 in data set [2]; “Dose-dependent-effect” in data set [10]; greater than 75% in [11]; greater than 99.9% in data set [13]; 77.5% in data set [16]. The outcome in [3], in [14], in data set [15], in data set [17] and in data set [18] was Active. For the same compound, the MIC in [4] was 8 µM; in [5], 32 µM; in [6] it was greater than 64 µM; in data set [7], greater than 64 µM; in [8] it was 64 µM; in data set [9] it was 32 µM. Further, the “log(activity)” value in data set [12] came out at 3. Besides, the viability at 0.25 h, 16 µM in [19] is greater than 80%. In addition, the outcome in [20] and in [21] was inactive.
With `CC[N+](C)(CC)CCCOc1ccc(-c2c3nc(c(-c4ccc(OCCC[N+](C)(CC)CC)cc4)c4[nH]c(c(-c5ccc(OCCC[N+](C)(CC)CC)cc5)c5nc(c(-c6ccc(OCCC[N+](C)(CC)CC)cc6)c6[nH]c2c2cc7ccccc7cc62)-c2cc6ccccc6cc2-5)c2cc5ccccc5cc42)-c2cc4ccccc4cc2-3)cc1.[Br-].[Br-].[Br-].[Br-]`, the Activity was 0.06 in [1]; 0.51 in [2]; “Dose-dependent-effect” in data set [10]; greater than 75% in [11]; greater than 99.9% in [13]; 80.1% in data set [16]. The result in data set [3], in data set [14], in data set [15], in data set [17], in [18] and in data set [22] was Active. The result in data set [23] was Active. Further, the MIC in [4] was 8 µM; in data set [5] it was 16 µM; in data set [6], greater than 64 µM; in data set [7], greater than 64 µM; in data set [8], 64 µM; in data set [9] it was 64 µM. In data set [12], the “log(activity)” value came out at 3. In addition, the viability at 0.25 h, 16 µM in data set [19] was greater than 80%. In addition, the outcome in data set [20] and in data set [21] was inactive.
